Test results: patent publication US20250214965A1, “COMPOUND AS KIF18A INHIBITOR” (Hangzhou Innogate Pharma Co., Ltd., priority 2021, published 2025)
Where two headings read alike, the source gives them in different places.

Legend:
[1] = test system: OVCAR-3; assay: Inhibition of proliferation of ovarian cancer cell line OVCAR-3 (CellTiter Glo); assay type: cell-based; settings: read-out: OVCAR-3 IC50
[2] = test system: HCC1806; assay: Inhibition of proliferation of breast cancer cell line HCC1806 (CellTiter Glo); assay type: cell-based; settings: read-out: HCC1806 IC50
[3] = rat, in vivo, po, 3 mg/kg
Method: (§1) Instruments: XEVO TQ-S LC/MS instrument was produced by Waters. All measurement data were collected and processed by Masslynx V4.1 software, and the data were calculated and processed by Microsoft Excel. The statistical moment method of WinNonLin 8.0 software was used to calculate the pharmacokinetic parameters. These mainly include kinetic parameters Tmax, T1/2, Cmax, AUC0-24h etc. Column: ACQUITY UPLC BEH C18 (2.1 mm×50 mm, 1.7 m); column temperature 40° C.; mobile phase A is water (0.1% formic acid), mobile phase B is acetonitrile, flow rate is 0.350 mL/min, gradient elution is adopted, the elution gradient is 0.50 min: 10% B; 1.50 min: 90% B; 2.50 min: 90% B; 2.51 min: 10% B; 3.50 min: stop. Injection volume: 1 μL.
(§2) Animals: 3 male SD rats with a weight range of 200-220 g were purchased and kept in the laboratory of the Experimental Animal Center for 2 days and then used. They were fasted for 12 hours predose and 4 hours after dosing. Drinking water was free during the test. After the rats were gavage, blood samples were taken according to the established time point.
(§3) Solvent: 0.4% ethanol+0.4% Tween80+99.2% (0.5% methylcellulose M450). Preparation of the solution for intragastrical administration: the compounds were accurately weighed and added to the solvent, and ultrasound was used at room temperature for 5 minutes to completely dissolve the drug, and a 0.3 mg/mL medicinal solution was prepared.
(§4) Pharmaceutical samples: Generally, multiple samples with similar structures (with a molecular weight difference of more than 2 units) are taken, accurately weighed, and administered together (cassette PK). In this way, multiple compounds can be screened at the same time and their oral absorption rates can be compared. A single administration was also used to study the pharmacokinetics of the drug sample in rats.
(§5) After intragastrical administration, blood was taken from the orbit at 0.25, 0.5, 1, 2, 4, 8, 10 and 24 hours. Then 50 μL of the plasma sample was taken and added 200 μL of acetonitrile (including internal standard control verapamil 2 ng/mL), vortexed for 3 min and centrifuged at 20000 rcf, 4° C. for 10 min. The supernatant plasma was used for LC-MS/MS analysis.
(§6) The compounds were accurately weighed to prepare different concentrations, and quantitative analysis on mass spectrometry was performed to establish a standard curve, and then the concentration of the above-mentioned compound in the plasma was tested to obtain its concentration at different time points. All measurement data were collected and processed by relevant software, and the statistical moment method was used to calculate the pharmacokinetic parameters (mainly including kinetic parameters Tmax, T1/2, Cmax, AUC0-24h etc).

[4] = target: KIF18A (Homo sapiens (Human), UniProt Q8NI77); assay: Inhibition of KIF18A enzyme activity (ADP-Glo); assay type: biochemical; settings: 60 min at 25° C.
KIF18A, sequence (Q8NI77 whole entry): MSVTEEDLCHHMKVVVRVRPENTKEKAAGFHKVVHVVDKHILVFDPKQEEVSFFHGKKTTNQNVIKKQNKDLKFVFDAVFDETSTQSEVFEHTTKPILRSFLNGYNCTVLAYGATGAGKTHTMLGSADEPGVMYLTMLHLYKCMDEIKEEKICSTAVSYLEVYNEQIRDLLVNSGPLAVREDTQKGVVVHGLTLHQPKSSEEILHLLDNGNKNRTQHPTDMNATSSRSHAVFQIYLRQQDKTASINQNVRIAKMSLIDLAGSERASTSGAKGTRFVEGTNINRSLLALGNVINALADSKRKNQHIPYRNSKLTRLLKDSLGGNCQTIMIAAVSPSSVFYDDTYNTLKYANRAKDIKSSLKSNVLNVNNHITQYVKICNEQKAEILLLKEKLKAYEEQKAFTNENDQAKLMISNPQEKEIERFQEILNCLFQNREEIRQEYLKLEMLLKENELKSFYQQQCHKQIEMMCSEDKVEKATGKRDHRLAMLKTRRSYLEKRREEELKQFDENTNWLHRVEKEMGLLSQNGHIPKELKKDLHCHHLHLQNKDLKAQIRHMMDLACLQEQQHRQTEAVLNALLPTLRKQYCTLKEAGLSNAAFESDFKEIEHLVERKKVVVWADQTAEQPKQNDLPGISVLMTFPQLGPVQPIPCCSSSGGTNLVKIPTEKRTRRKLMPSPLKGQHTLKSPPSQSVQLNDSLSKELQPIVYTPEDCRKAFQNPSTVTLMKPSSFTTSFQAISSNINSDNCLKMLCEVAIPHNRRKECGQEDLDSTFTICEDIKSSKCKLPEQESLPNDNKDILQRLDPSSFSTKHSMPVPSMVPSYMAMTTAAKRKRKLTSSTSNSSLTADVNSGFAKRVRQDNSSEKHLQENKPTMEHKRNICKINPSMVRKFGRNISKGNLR
Method: The ADP-Glo method was used to test the enzymatic activity of KIF18A. The compound was diluted 3-fold with DMSO at a starting concentration of 3000 nM, for a total of ten concentrations, and tested in duplicate. Echo was used to transfer 25 nL of the diluted compound to a 384-well plate, and 2.5 μL of enzyme working solution was added. Plate was centrifuged at 1000 rpm for 1 min, and incubated at 25° C. for 10 min. 2.5 μL of ATP and substrate solution was added to start the reaction, and plate was incubated at 25° C. for 60 min. 4 μL of ADP-Glo solution was added to the 384-well plate, and plate was incubated at 25° C. for 40 min. 8 μL of detection solution was added and incubated at 25° C. for 40 min, and BMG was used to read the […] value. Inhibition rate was calculate according to the following formula: Inhibition rate (%)=(DMSO well−compound well)/(DMSO well−blank control well)×100%. The IC50 value of each compound was analyzed using the nonlinear regression method of XLFit 5.5.0 software. The formula is: Y=Bottom+(Top−Bottom)/(1+10^((Log IC50−X)*HillSlope)).

[5] = test system: HCC1954; assay: Inhibition of proliferation of breast cancer cell line HCC1954 (CellTiter Glo); assay type: cell-based; settings: HCC1954 cells, 96 hours
[6] = Pharmacokinetic study in rats
Method: as §1, §2, §3, §4, §5, §6

[7] = Homo sapiens, OVCAR-3 cells, 96 hours, CellTiter Glo
[8] = Homo sapiens, HCC1806 cells, 96 hours, CellTiter Glo
[9] = male, SD, rat, plasma, po, 3 mg/kg

## Cc1cc(NC(=O)c2ccc(NS(=O)(=O)C(C)CO)cc2N2CCC3(CC2)CC3)nc(N2CCC(=C(F)F)CC2)n1 (stereo not shown) [Compound 3C]
[1]; [7]
  IC50: < 200 nM
[2]; [8]
  IC50: < 500 nM

## Cc1cc(NC(=O)c2ccc(NS(=O)(=O)C3(CO)CC3)cc2N2CCC3(CC2)CC3)nc(N2CCC(=C(F)F)CC2)n1 [Compound 13]
[1]; [7]
  IC50: < 500 nM
[2]; [8]
  IC50: < 500 nM

## Cc1cc(NC(=O)c2ccc(NS(=O)(=O)C3(CN4CC(O)C4)CC3)cc2N2CCC3(CC2)CC3)nc(N2CCC(F)(F)CC2)n1 [Compound 20]
[1]; [7]
  IC50: < 1000 nM
[2]; [8]
  IC50: < 1000 nM

## O=C(Nc1cccc(N2CC(F)(F)C2)n1)c1ccc(NS(=O)(=O)C2(CN3CCC3)CC2)cc1N1CCC2(CC1)CC2 [Compound 29]
[1]; Homo sapiens, OVCAR-3, 96 h
  IC50: < 500 nM
[2]; Homo sapiens, HCC1806, 96 h
  IC50: < 1000 nM

## C[C@@H]1CN(c2cccc(NC(=O)c3ccc(NS(=O)(=O)C4(CN5CCC5)CC4)cc3N3CCC4(CC3)CC4)n2)CCO1 [Compound 30]
[1]; [7]
  IC50: < 500 nM
[2]; [8]
  IC50: < 1000 nM

## C[C@@H]1CN(c2cccc(NC(=O)c3ccc(NS(=O)(=O)C4(CN5CC(O)C5)CC4)cc3N3CCC4(CC3)CC4)n2)CCO1 [Compound 32]
[1]; [7]
  IC50: < 1500 nM
[2]; [8]
  IC50: < 1000 nM

## Cc1cc(NC(=O)c2ccc(NS(=O)(=O)CCO)cc2N2CCC(=C(F)F)CC2)nc(N2CCC(F)(F)CC2)n1 [Compound 33]
[3]
  AUC0-24 h: 10273.88 ng·h/mL
  Cmax: 717.6 ng/mL
  T1/2: 7.05 h
  Tmax: 8.00 h
[1]
  IC50: < 75 nM
[4]
  IC50: < 50 nM
[2]
  IC50: < 200 nM
[5]
  IC50: < 75 nM

## CC(C)=C1CCN(c2cc(NS(=O)(=O)CCO)ccc2C(=O)Nc2cc(C)nc(N3CCC(F)(F)CC3)n2)CC1 [Compound 35]
[1]; [7]
  IC50: < 500 nM

## C=C(C)C1CCN(c2cc(NS(=O)(=O)C3(C)CC3)ccc2C(=O)Nc2cccc(S(=O)(=O)NC(C)(C)C)c2)CC1 [Compound 36]
[1]; [7]
  IC50: < 200 nM

## CC(C)(C)NS(=O)(=O)c1cccc(NC(=O)c2ccc(NS(=O)(=O)C3(C)CC3)cc2N2CCC(=C(F)F)CC2)c1 [Compound 39]
[1]; [7]
  IC50: < 50 nM

## O=C(Nc1cccc(N2CCC(F)(F)CC2)n1)c1ccc(NS(=O)(=O)CCO)cc1N1CCC(=C(F)F)CC1 [Compound 40]
[1]; [7]
  IC50: < 50 nM

## CC(C)(C)NS(=O)(=O)c1cccc(NC(=O)c2ccc(NS(=O)(=O)CCO)cc2N2CCC(=C(F)F)CC2)c1 [Compound 41]
[1]; [7]
  IC50: < 50 nM

## CC(C)=C1CCN(c2nc(NCCO)ccc2C(=O)Nc2cccc(S(=O)(=O)C3CCCC3)c2)CC1 [Compound 44]
[1]; [7]
  IC50: < 2000 nM

## CP(=O)(c1cccc(NC(=O)c2ccc(NCCO)nc2N2CCC3(CC2)CC3)c1)C1CCCC1 (stereo not shown) [Compound 46]
[1]; [7]
  IC50: < 1500 nM

## Cc1cc(NC(=O)c2ccc(NS(=O)(=O)C3CC(O)C3)cc2N2CCC3(CC2)CC3)nc(N2CCC(F)(F)CC2)n1 (stereo not shown) [Compound 47]
[1]; [7]
  IC50: < 50 nM
[5]; Homo sapiens
  IC50: < 75 nM

## Cc1cc(NC(=O)c2ccc(NS(=O)(=O)CCO)cc2N2CCC(=C(F)F)CC2)nc(N2CCC(F)(F)CC2)c1 [Compound 48]
[3]
  AUC0-24 h: 1724.65 ng·h/mL
  Cmax: 153.57 ng/mL
  T1/2: 4.91 h
  Tmax: 4.00 h
[1]
  IC50: < 50 nM
[4]
  IC50: < 50 nM
[2]
  IC50: < 50 nM
[5]
  IC50: < 50 nM

## Cc1cc(NC(=O)c2ccc(NS(=O)(=O)C3(CO)CC3)cc2N2CCC(=C(F)F)CC2)nc(N2CCC(F)(F)CC2)n1 [Compound 51]
[6]; [9]
  AUC(0-t): 424 ng·h/mL
  Cmax: 43.3 ng/mL
  Tmax: 4.67 h
  half-life: 6.68 h
[1]; [7]
  IC50: < 50 nM
[2]; [8]
  IC50: < 200 nM
[5]; Homo sapiens
  IC50: < 100 nM

## Cc1cc(NC(=O)c2ccc(NS(=O)(=O)C(C)CO)cc2N2CCC(=C(F)F)CC2)nc(N2CCC(F)(F)CC2)n1 (stereo not shown) [Compound 52]
[1]; [7]
  IC50: < 50 nM
[2]; [8]
  IC50: < 100 nM

## C[C@@H]1CN(c2cccc(NC(=O)c3ccc(NS(=O)(=O)CCO)cc3N3CCC(=C(F)F)CC3)n2)CCO1 [Compound 53]
[1]; [7]
  IC50: < 50 nM
[5]; Homo sapiens
  IC50: < 50 nM

## Cc1cc(NC(=O)c2ccc(NS(=O)(=O)CCO)cc2N2CCC(=C(F)F)CC2)cc(N2CCC(F)(F)CC2)c1 [Compound 56]
[6]; male SD rats, oral 3 mg/kg
  AUC0-24 h: 2051.53 ng·h/mL
  Cmax: 175.28 ng/mL
  T1/2: 3.83 h
  Tmax: 4.00 h
[1]
  IC50: < 50 nM
[4]
  IC50: < 50 nM
[2]
  IC50: < 100 nM
[5]
  IC50: < 75 nM

## CC(C)(CO)Nc1ccc(C(=O)Nc2cccc(S(=O)(=O)C3CCCC3)c2)c(N2CCC(=C(F)F)CC2)n1 [Compound 59]
[1]; [7]
  IC50: < 75 nM
[2]; [8]
  IC50: < 200 nM
[5]; Homo sapiens
  IC50: < 75 nM

## Cc1cc(NC(=O)c2ccc(NS(=O)(=O)C(C)(C)CO)cc2N2CCC(=C(F)F)CC2)nc(N2CCC(F)(F)CC2)n1 [Compound 60]
[6]; male SD rats, oral 3 mg/kg
  AUC0-24 h: 1330.47 ng·h/mL
  Cmax: 90.70 ng/mL
  T1/2: 7.47 h
  Tmax: 6.67 h
[1]
  IC50: < 50 nM
[4]
  IC50: < 150 nM
[2]
  IC50: < 200 nM
[5]
  IC50: < 75 nM

## CC(C)(C)NS(=O)(=O)c1cccc(NC(=O)c2ccc(NC(C)(C)CO)nc2N2CCC(=C(F)F)CC2)c1 [Compound 62]
[1]; [7]
  IC50: < 200 nM
[2]; [8]
  IC50: < 500 nM

## CC(C)(C)NS(=O)(=O)c1cccc(NC(=O)c2ccc(S(=O)(=O)NC(C)(C)C)cc2N2CCC(=C(F)F)CC2)c1 [Compound 63]
[1]; [7]
  IC50: < 50 nM
[2]; [8]
  IC50: < 75 nM
[5]; Homo sapiens
  IC50: < 50 nM

## Cc1cc(NC(=O)c2ccc(NS(=O)(=O)CCO)nc2N2CCC(=C(F)F)CC2)nc(N2CCC(F)(F)CC2)n1 [Compound 65]
[1]; [7]
  IC50: < 500 nM
[2]; [8]
  IC50: < 1000 nM

## CC(C)(C)NS(=O)(=O)c1cccc(NC(=O)c2ccc(S(=O)(=O)C3(C)COC3)cc2N2CCC(=C(F)F)CC2)c1 [Compound 67]
[1]; [7]
  IC50: < 500 nM
[2]; [8]
  IC50: < 1000 nM

## Cc1cc(NC(=O)c2ccc(NS(=O)(=O)[C@H](C)CO)cc2N2CCC(=C(F)F)CC2)nc(N2CCC(F)(F)CC2)n1 [Compound 68]
[6]; [9]
  AUC(0-t): 3330 ng·h/mL
  Cmax: 227 ng/mL
  Tmax: 6.67 h
  half-life: 7.18 h
[1]; [7]
  IC50: < 50 nM
[2]; [8]
  IC50: < 100 nM
[5]; Homo sapiens
  IC50: < 50 nM

## Cc1cc(NC(=O)c2ccc(NS(=O)(=O)[C@@H](C)CO)cc2N2CCC(=C(F)F)CC2)nc(N2CCC(F)(F)CC2)n1 [Compound 69]
[1]; [7]
  IC50: < 100 nM
[2]; [8]
  IC50: < 200 nM
[5]; Homo sapiens
  IC50: < 200 nM

## Cc1cc(NC(=O)c2ccc(NS(=O)(=O)C(F)CO)cc2N2CCC(=C(F)F)CC2)nc(N2CCC(F)(F)CC2)n1 (stereo not shown) [Compound 72]
[1]; [7]
  IC50: < 200 nM
[2]; [8]
  IC50: < 500 nM

## CC(C)(C)NS(=O)(=O)c1cccc(NC(=O)c2ccc(S(=O)(=O)C3COC3)cc2N2CCC(=C(F)F)CC2)c1 [Compound 73]
[1]; [7]
  IC50: < 200 nM
[2]; [8]
  IC50: < 500 nM

## Cc1nc(N2CCC(F)(F)CC2)nc(NC(=O)c2ccc(NS(=O)(=O)CCO)cc2N2CCC(=C(F)F)CC2)c1F [Compound 74]
[1]; [7]
  IC50: < 1000 nM
[5]; Homo sapiens
  IC50: < 1000 nM

## CCc1cc(NC(=O)c2ccc(NS(=O)(=O)CCO)cc2N2CCC(=C(F)F)CC2)nc(N2CCC(F)(F)CC2)n1 [Compound 75]
[1]; [7]
  IC50: < 200 nM

## N#Cc1ccc(NC(=O)c2ccc(NS(=O)(=O)CCO)cc2N2CCC(=C(F)F)CC2)nc1N1CCC(F)(F)CC1 [Compound 77]
[1]; [7]
  IC50: < 50 nM

## Cc1cc(NC(=O)c2ccc(NS(=O)(=O)CCO)cc2N2CCC(=C(F)F)CC2)nc(N2CCC(F)(F)CC2)c1F [Compound 79]
[6]; [9]
  AUC(0-t): 2240 ng·h/mL
  Cmax: 160 ng/mL
  Tmax: 5.33 h
  half-life: 7.61 h
[1]; [7]
  IC50: < 50 nM

## Cc1cc(NC(=O)c2ccc(NS(=O)(=O)[C@H](C)CO)cc2N2CCC(=C(F)F)CC2)nc(N2CCC(F)(F)CC2)c1 [Compound 82]
[6]; [9]
  AUC(0-t): 4520 ng·h/mL
  Cmax: 363 ng/mL
  Tmax: 4.67 h
  half-life: 5.01 h
